Test system: MPNST (malignant peripheral nerve sheath tumor) cells
Assay: Cell viability assay (Dojindo CCK-8)
Details: 500 nmol/L, 72 hours

Compound: Cc1ccc(NC(=O)c2ccc(CN3CCN(C)CC3)cc2)cc1Nc1nccc(-c2cccnc2)n1 [imatinib]
- anti-proliferative effect, comparison of TKIs: anti-proliferative effect similar to MGCD516
